Reference: US20220363710A1, “SMALL-MOLECULE COMPOUND HAVING A2A ADENOSINE RECEPTOR ANTAGONISM” (ACADEMY OF MILITARY MEDICAL SCIENCES, priority 2019, published 2022)
Like-named read-outs stand apart in the source and are kept apart here.

Experiments:
[1] = molecular target: human adenosine receptor A2A (Homo sapiens, UniProt P29274); assay: A2A adenosine receptor cAMP test (LANCE Ultra cAMP, hADORA2A-HEK293 cells); assay type: cell-based
Excerpt: A2A Adenosine Receptor cAMP Test
Experimental reagents and consumables: DMEM/F12, G418, Penicillin-Streptomycin, Versene Solution, HEPES, Hank's Buffered Saline Solution, PBS (pH 7.4, 1×, sterile), FBS, BSA Stabilizer 7.5%, Rolipram, NECA were separately purchased from Gibico, Hyclone and Sigma. LANCE® Ultra cAMP kit (Eu-cAMP tracer, Ulight-anti-cAMP reagent, cAMP detection buffer) and hADORA2A-HEK293 cells were purchased from PerkinElmer Research Products (Boston, Mass.). All other reagents were of analytical grade and obtained from commercial sources. 384-well polypropylene microplate and 384-well solid white plate were purchased from Labcyte and Corning, respectively.
Experimental instruments: TECAN automated liquid handling workstation, Echo Acoustic Liquid Handler and EnVison multimode plate reader were purchased from TECAN, Labcyte and […], respectively.
The cells stably expressing human adenosine receptor A2A (hADORA2A-HEK293 cells) were cultured in DMEM/F12 medium containing 10% FBS, 1× Penicillin-Streptomycin and 400 μg/ml G418 in a 37° C. and 5% CO2 environment. Before the experiment, the cells were digested with Versene solution, and the cells were collected by centrifugation at 200 g and room temperature for 5 minutes, and finally resuspended with assay buffer (Hank's buffered saline solution, containing 5 mM HEPES, 0.1% BSA stabilizer and 10 μM Rolipram, pH 7.4). The TECAN automated liquid handling workstation was used to dilute the compound in a 384-well polypropylene microplate with DMSO to 11 concentration points in a 3-fold gradient to prepare the compound source plate, in which the 11 concentration points of the compound were 10 mM, 3.33 mM, 1.11 mM., 0.37 mM, 0.12 mM, 0.041 mM, 0.013 mM, 4.57×10^−3 mM, 1.52×10^−3 mM, 5×10−4 mM and 1.7×10^−4 mM. The Echo Acoustic Liquid Handler (Labcyte) was used to transfer the test compound from the compound source plate to an assay plate, in which the transfer volume of the compound was 10 nl/well. The hADORA2A-HEK293 cell suspension was diluted with assay buffer to 30,000 cells/ml, and the cell suspension was transferred to the assay plate at a volume of 10 μl/well (300 cells/well). The assay plate was centrifuged at 150 g for 1 minute and pre-incubated at room temperature for 30 minutes. The Eu-cAMP tracer working solution (Eu-cAMP tracer 40 μl, cAMP detection buffer 1.96 ml) (5 μl/well) was added to the assay plate, and then the Ulight-anti-cAMP working solution (13 μl of Ulight-anti-cAMP reagent and 1.95 ml of cAMP detection buffer) (5 μl/well) was added to the assay plate. The assay plate was rotated at 150 g for 30 seconds and incubated at room temperature for 30 minutes. The EnVison multimode plate reader (PerkinElmer) was used determine the level of cyclic adenosine monophosphate in the final solution (λex=320 nm, λem=665 nm & 615 nm). The EC50 (nM) value of the compound interacting with the A2A adenosine receptor to stimulate the production of cyclic adenosine monophosphate was calculated and the titer of the compound function was expressed as the EC50 (nM) value.
When the test compounds interacted with A2AAR, the EC50 (nM) values for stimulating the production of cyclic AMP were shown in Table 2.

[2] = molecular target: T1, (human) A2A adenosine receptor (Homo sapiens, UniProt P29274); assay: Radioligand binding test ([3H]CGS21680 displacement, hA2A HEK-293 cell membranes); conditions: for IC50: [3H]-CGS 21680 25 nM, hA2A HEK-293 cell membrane, 25° C., 90 minutes, read-out: IC50 (nM), compounds binding to A2A adenosine receptor; for Ki: read-out: Ki (nM), inhibition constant for binding to A2A adenosine receptor
T1 construct: purchased PerkinElmer Research Products (Boston, Mass.); host or cells: HEK-293 cells, stably transfected; membrane preparation
Protocol: Cell membranes stably transfected with (human) A2A adenosine receptor were prepared in HEK-293 cells. The cell membranes were obtained from PerkinElmer Research Products (Boston, Mass.).
CGS 21680 (2-[p-(2-carboxyethyl)phenylethylamino]-5′-ethylcarboxamidoadenosine) was purchased from Selleck (Shanghai, CN).
The A2A adenosine receptors used were all expressed in the cell membranes. The compound was diluted 3 times serially with DMSO (Solarbio, D8371-250 ml) to generate compound source plates with 10 different concentrations (10 μM, 3.3 μM, 1.1 μM, 0.37 μM, 0.12 μM, 0.0412 μM, 0.0137 μM, 0.0046 μM, 0.0015 μM, 0.0005 μM), 250 nL of compound was added to 384-well Opti-plate, sealed with parafilm. […] (final 25 nM) was added to the diluted cell membrane and mixed well. 50 μL of the prepared dilution solution of cell membrane was transferred to the 384-well Opti-plate containing compound and incubated at 25° C. for 90 minutes. 100 μL of 0.5% Polyethyleneimine solution (PEI) was added to […]-96 GF/B filter plate, and soaked for 90 minutes at 4° C., then 500 μL of washing buffer/well (50 mM Tris-HCl, pH 7.4, 154 mM NaCl) was transferred with Cell Harvester to wash the […]-96 GF/B filter plate twice. The mixed system in the Opti-plate was transferred to the washed […]-96 GF/B filter plate, 500 μL of washing buffer/well (50 mM Tris-HCl, pH 7.4, 154 mM NaCl) was used to wash the […]-96 GF/B filter plate 9 times. Incubation was performed at 37° C. for 3 minutes. 40 μL of ULTIMA GOLD scintillation solution (Perkin Elmer, Cat #77-16061) was added to each well, CPM (count per minute) value was read by a MicroBeta liquid scintillation counter (PerkinElmer).

[3] = stimulating the production of cyclic AMP, read-out: cAMP EC50
[4] = stimulating the production of cyclic adenosine monophosphate, read-out: cAMP EC50 values

Sequence of human adenosine receptor A2A (P29274 whole entry): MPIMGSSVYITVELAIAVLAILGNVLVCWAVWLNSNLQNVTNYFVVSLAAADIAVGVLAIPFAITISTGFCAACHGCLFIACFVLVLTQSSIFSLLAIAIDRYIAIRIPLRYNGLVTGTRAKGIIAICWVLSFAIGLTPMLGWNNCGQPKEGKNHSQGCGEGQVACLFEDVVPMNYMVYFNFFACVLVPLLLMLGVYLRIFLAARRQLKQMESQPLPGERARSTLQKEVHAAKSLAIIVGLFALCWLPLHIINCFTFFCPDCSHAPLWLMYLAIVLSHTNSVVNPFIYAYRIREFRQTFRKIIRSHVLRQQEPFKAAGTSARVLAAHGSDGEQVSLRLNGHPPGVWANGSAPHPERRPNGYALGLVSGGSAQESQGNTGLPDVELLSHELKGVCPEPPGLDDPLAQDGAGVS
T1 sequence (P29274 whole entry): as above

| SMILES | melting point | agonistic activity at hA2AAR (cAMP production) [1] | EC50 [1, 3] | EC50 [1, 4] | IC50 [2] | Ki [2] |
| --- | --- | --- | --- | --- | --- | --- |
| CC(=O)Nc1ccc(-c2nnc3c4ncn([C@@H]5O[C@H](CO)[C@@H](O)[C@H]5O)c4ncn23)cc1 [Compound 1, N-{4-{7-[(2R,3R,4S,5R)-3,4-dihydroxy-5-(hydroxymethyl)tetrahydrofuran-2-yl]-7H-[1,2,4]triazolo[3,4-i]purin-3-yl}phenyl}acetamide] | 132 °C | no agonistic activity | > 10 µM | > 10 µM | 6.4 nM | 3 nM |
| OC[C@H]1O[C@@H](n2cnc3c2ncn2c(C4CCCC4)nnc32)[C@H](O)[C@@H]1O [Compound 2, (2R,3R,4S,5R)-2-{3-cyclopentyl-7H-[1,2,4]triazolo[3,4-i]purin-7-yl}-5-(hydroxymethyl)tetrahydrofuran-3,4-diol] | 84 °C | no agonistic activity | > 10 µM | > 10 µM | 3.9 nM | 1.8 nM |
| OC[C@H]1O[C@@H](n2cnc3c2ncn2c(-c4ccc(OCc5ccccc5)c(OCc5ccccc5)c4)nnc32)[C@H](O)[C@@H]1O [Compound 3, (2R,3R,4S,5R)-2-{3-[3,4-di(benzyloxy)phenyl]-7H-[1,2,4]triazolo[3,4-i]purin-7-yl}-5-(hydroxymethyl)tetrahydrofuran-3,4-diol] | 116 °C |  |  |  | > 10000 nM | > 10000 nM |
| OC[C@H]1O[C@@H](n2cnc3c2ncn2c(-c4ccc(OCc5ccc(F)cc5)cc4)nnc32)[C@H](O)[C@@H]1O [Compound 4, (2R,3R,4S,5R)-2-{3-{4-[(4-fluorobenzyl)oxy]phenyl}-7H-[1,2,4]triazolo[3,4-i]purin-7-yl}-5-(hydroxymethyl)tetrahydrofuran-3,4-diol] | 112 °C | no agonistic activity | > 10 µM | > 10 µM | 3.9 nM | 1.8 nM |
| OC[C@H]1O[C@@H](n2cnc3c2ncn2c(-c4cccc(OCc5ccccc5)c4)nnc32)[C@H](O)[C@@H]1O [Compound 5, (2R,3R,4S,5R)-2-{3-[3-(benzyloxy)phenyl]-7H-[1,2,4]triazolo[3,4-i]purin-7-yl}-5-(hydroxymethyl)tetrahydrofuran-3,4-diol] | 76 °C | no agonistic activity | > 10 µM | > 10 µM | 6.2 nM | 2.9 nM |
| OC[C@H]1O[C@@H](n2cnc3c2ncn2c(-c4ccc(C(F)(F)F)cc4C(F)(F)F)nnc32)[C@H](O)[C@@H]1O [Compound 6, (2R,3R,4S,5R)-2-{3-[2,4-di(trifluoromethyl)phenyl]-7H-[1,2,4]triazolo[3,4-i]purin-7-yl}-5-(hydroxymethyl)tetrahydrofuran-3,4-diol] |  |  |  |  | > 10000 nM | > 10000 nM |
| OC[C@H]1O[C@@H](n2cnc3c2ncn2c(-c4ccc(-c5ccccn5)cc4)nnc32)[C@@H](O)[C@H]1O [Compound 7, (2R,3S,4R,5R)-2-{3-[4-(pyridin-2-yl)phenyl]-7H-[1,2,4]triazolo[3,4-i]purin-7-yl}-5-(hydroxymethyl)tetrahydrofuran-3,4-diol] | 172 °C |  |  |  | > 10000 nM | > 10000 nM |
| OC[C@H]1O[C@@H](n2cnc3c2ncn2c(-c4ccc(-c5ccccc5)cc4)nnc32)[C@H](O)[C@@H]1O [Compound 8, (2R,3R,4S,5R)-2-{3-{[1,1′-biphenyl]-4-yl}-7H-[1,2,4]triazolo[3,4-i]purin-7-yl}-5-(hydroxymethyl)tetrahydrofuran-3,4-diol] | 280 °C |  |  |  | 7510 nM | 3510 nM |
| CCCOc1ccc(-c2nnc3c4ncn([C@@H]5O[C@H](CO)[C@H](O)[C@@H]5O)c4ncn23)cc1 [Compound 9, (2R,3S,4R,5R)-2-{3-(4-propoxyphenyl)-7H-[1,2,4]triazolo[3,4-i]purin-7-yl}-5-(hydroxymethyl)tetrahydrofuran-3,4-diol] | 118 °C | no agonistic activity | > 10 µM | > 10 µM | 4.3 nM | 2 nM |
| OC[C@H]1O[C@@H](n2cnc3c2ncn2c(-c4ccc(C(F)(F)F)cc4)nnc32)[C@@H](O)[C@H]1O [Compound 10, (2R,3S,4R,5R)-2-{3-[4-(trifluoromethyl)phenyl]-7H-[1,2,4]triazolo[3,4-i]purin-7-yl}-5-(hydroxymethyl)tetrahydrofuran-3,4-diol] | 124 °C |  |  |  | > 10000 nM | > 10000 nM |
| OC[C@H]1O[C@@H](n2cnc3c2ncn2c(-c4ccc(Br)cn4)nnc32)[C@H](O)[C@@H]1O [Compound 11, (2R,3R,4S,5R)-2-{3-(5-bromopyridin-2-yl)-7H-[1,2,4]triazolo[3,4-i]purin-7-yl}-5-(hydroxymethyl)tetrahydrofuran-3,4-diol] | 222 °C |  |  |  | > 10000 nM | > 10000 nM |
| OC[C@H]1O[C@@H](n2cnc3c2ncn2c(-c4cncs4)nnc32)[C@@H](O)[C@H]1O [Compound 12, (2R,3S,4R,5R)-2-{3-(thiazol-5-yl)-7H-[1,2,4]triazolo[3,4-i]purin-7-yl}-5-(hydroxymethyl)tetrahydrofuran-3,4-diol] | 216 °C | no agonistic activity | > 10 µM | > 10 µM | 3.9 nM | 1.8 nM |
| OC[C@H]1O[C@@H](n2cnc3c2ncn2c(C4CCCCC4)nnc32)[C@H](O)[C@@H]1O [Compound 13, (2R,3R,4S,5R)-2-{3-cyclohexyl-7H-[1,2,4]triazolo[3,4-i]purin-7-yl}-5-(hydroxymethyl)tetrahydrofuran-3,4-diol] | 130 °C |  |  |  | > 10000 nM | > 10000 nM |
